Results reported in BigSolDB 2.1.

## O=c1cc(CO)occ1O
In THF, 278.15 K
  solubility (mole fraction): 0.00384
In THF, 283.15 K
  solubility (mole fraction): 0.00435
In THF, 288.15 K
  solubility (mole fraction): 0.00541
In THF, 293.15 K
  solubility (mole fraction): 0.00663
In THF, 298.15 K
  solubility (mole fraction): 0.00799
In THF, 303.15 K
  solubility (mole fraction): 0.00961
In THF, 308.15 K
  solubility (mole fraction): 0.0116
In THF, 313.15 K
  solubility (mole fraction): 0.0134
In THF, 318.15 K
  solubility (mole fraction): 0.017
In THF, 323.15 K
  solubility (mole fraction): 0.0199
In acetonitrile, 278.15 K
  solubility (mole fraction): 0.00062
In acetonitrile, 283.15 K
  solubility (mole fraction): 0.00078
In acetonitrile, 288.15 K
  solubility (mole fraction): 0.00097
In acetonitrile, 293.15 K
  solubility (mole fraction): 0.00122
In acetonitrile, 298.15 K
  solubility (mole fraction): 0.00151
In acetonitrile, 303.15 K
  solubility (mole fraction): 0.00184
In acetonitrile, 308.15 K
  solubility (mole fraction): 0.00226
In acetonitrile, 313.15 K
  solubility (mole fraction): 0.00276
In acetonitrile, 318.15 K
  solubility (mole fraction): 0.00341
In acetonitrile, 323.15 K
  solubility (mole fraction): 0.00424
In isopropanol, 278.15 K
  solubility (mole fraction): 0.00213
In isopropanol, 283.15 K
  solubility (mole fraction): 0.00266
In isopropanol, 288.15 K
  solubility (mole fraction): 0.0032
In isopropanol, 293.15 K
  solubility (mole fraction): 0.00392
In isopropanol, 298.15 K
  solubility (mole fraction): 0.00478
In isopropanol, 303.15 K
  solubility (mole fraction): 0.00557
In isopropanol, 308.15 K
  solubility (mole fraction): 0.00667
In isopropanol, 313.15 K
  solubility (mole fraction): 0.00814
In isopropanol, 318.15 K
  solubility (mole fraction): 0.00974
In isopropanol, 323.15 K
  solubility (mole fraction): 0.0116
In methyl acetate, 278.15 K
  solubility (mole fraction): 0.00085
In methyl acetate, 283.15 K
  solubility (mole fraction): 0.0011
In methyl acetate, 288.15 K
  solubility (mole fraction): 0.00141
In methyl acetate, 293.15 K
  solubility (mole fraction): 0.00172
In methyl acetate, 298.15 K
  solubility (mole fraction): 0.00213
In methyl acetate, 303.15 K
  solubility (mole fraction): 0.0026
In methyl acetate, 308.15 K
  solubility (mole fraction): 0.00317
In methyl acetate, 313.15 K
  solubility (mole fraction): 0.00385
In methyl acetate, 318.15 K
  solubility (mole fraction): 0.00467
In methyl acetate, 323.15 K
  solubility (mole fraction): 0.00556
In n-butanol, 278.15 K
  solubility (mole fraction): 0.00193
In n-butanol, 283.15 K
  solubility (mole fraction): 0.00242
In n-butanol, 288.15 K
  solubility (mole fraction): 0.00289
In n-butanol, 293.15 K
  solubility (mole fraction): 0.00364
In n-butanol, 298.15 K
  solubility (mole fraction): 0.00452
In n-butanol, 303.15 K
  solubility (mole fraction): 0.00538
In n-butanol, 308.15 K
  solubility (mole fraction): 0.00646
In n-butanol, 313.15 K
  solubility (mole fraction): 0.00779
In n-butanol, 318.15 K
  solubility (mole fraction): 0.00935
In n-butanol, 323.15 K
  solubility (mole fraction): 0.011
In n-pentanol, 278.15 K
  solubility (mole fraction): 0.00185
In n-pentanol, 283.15 K
  solubility (mole fraction): 0.00222
In n-pentanol, 288.15 K
  solubility (mole fraction): 0.0028
In n-pentanol, 293.15 K
  solubility (mole fraction): 0.00392
In n-pentanol, 298.15 K
  solubility (mole fraction): 0.00417
In n-pentanol, 303.15 K
  solubility (mole fraction): 0.00506
In n-pentanol, 308.15 K
  solubility (mole fraction): 0.00611
In n-pentanol, 313.15 K
  solubility (mole fraction): 0.00733
In n-pentanol, 318.15 K
  solubility (mole fraction): 0.00882
In n-pentanol, 323.15 K
  solubility (mole fraction): 0.0106
In sec-butanol, 278.15 K
  solubility (mole fraction): 0.00202
In sec-butanol, 283.15 K
  solubility (mole fraction): 0.00245
In sec-butanol, 288.15 K
  solubility (mole fraction): 0.00315
In sec-butanol, 293.15 K
  solubility (mole fraction): 0.00387
In sec-butanol, 298.15 K
  solubility (mole fraction): 0.00465
In sec-butanol, 303.15 K
  solubility (mole fraction): 0.0057
In sec-butanol, 308.15 K
  solubility (mole fraction): 0.0069
In sec-butanol, 313.15 K
  solubility (mole fraction): 0.00817
In sec-butanol, 318.15 K
  solubility (mole fraction): 0.00981
In sec-butanol, 323.15 K
  solubility (mole fraction): 0.0117
